One series deals with T1, CDK13 (Homo sapiens, UniProt Q14004).
T1 construct: Immunoblotting of CDK12 and CDK13 in MDA-MB-231 cells treated with increasing concentrations of ZLC491 for 15 h; endogenous in cells; host or cells: MDA-MB-231
The series can be described thus: CDK13 degradation in MDA-MB-231 cells by immunoblotting.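 For Protein Degradation (%DMSO control, 0.3 μM) CDK13: percent of CDK13 protein degraded relative to DMSO control.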 The series is classed as cell-based. Particulars: 0.3 μM; for Protein Degradation (%DMSO control, 0.3 μM) CDK13: MDA-MB-231 cells, 15 h, immunoblotting, normalized against α-tubulin; for Degradation rates of CDK13 at 0.3 μM: supplementary CSV. As to the method:
(§1) The degradation efficiency of the new molecules was assessed by immunoblotting after treatment with the compounds at 0.3 μM in MD-MBA-231 cells for 15 h.
(§2) To further characterize the compound, we determined the half-degradation concentration (DC50) values of ZLC491 in MDA-MB-231 cells. […] We also treated MDA-MB-231 cells with 1 μM ZLC491 at various time points.
(§3) (A) Immunoblotting of CDK12 and CDK13 in MDA-MB-231 cells treated with increasing concentrations of ZLC491 for 15 h (left). Percent remaining CDK12 and CDK13 proteins were plotted for DC50 determination (right). Protein levels were quantified using ImageJ and normalized to corresponding α-tubulin, then plotted using Graphpad Prism 8.0. The data were representative of three independent experiments; (B) immunoblotting of CDK12 and CDK13 proteins in MDA-MB-231 cells treated with ZLC491 for various time points; immunoblotting of CDK12 and CDK13 in HCC38 (C) and MDA-MB-436 (D) cells treated with increasing concentrations of ZLC491 for 15 h. α-Tubulin was used as a loading control. TEXT PRINTED IN THE PICTURE: (A) ZLC491: MDA-MB-231: CDK12 DC50 = 0.032μM; MDA-MB-231: CDK13 DC50 = 0.028μM DOUBTS OF THE COPYIST ABOUT THIS PICTURE: ZLC491, CDK12 DC50: 0.032 read from small print, the digits 3 and 2 are uncertain / ZLC491, CDK13 DC50: 0.028 read from small print, the last digit may be 8, 6 or 3
(§4) Generally, the tested cells were washed by ice-cold PBS buffer (Gibco) and lysed with an SDS lysis buffer (62.5 mM Tris, 2% w/v SDS, 10 glycerol, 50 mM DTT, 0.01% w/v bromophenol blue) on ice, after which the protein lysate samples were collected to 1.5 mL microcentrifuge tubes and treated with ultrasonic for 10 s, following with a 100 °C incubation for 10 min and a 4 °C centrifugation of 12000 rpm for 10 min. An equal amount of protein was loaded to 4–8% Bis-Tris gels and underwent an SDS-PAGE electrophoresis at 55V for 30 min and 95V for 90 min. Proteins on gels were then transferred to a polyvinylidene difluoride (PVDF) membrane (Bio-Rad) with a wet electro transfer system (Bio-Rad). The PVDF membrane was cut into bands and incubated in a blocking reagent (5% defatted milk powder dissolved in TBST) at room temperature for 1–2 h. Incubate membrane and primary antibody (at the appropriate dilution and diluent as recommended in the product webpage) at 4 °C for 12–14 h, followed with three times washes by TBST. The washed membranes were incubated in a secondary antibody solution (HRP-linked antirabbit IgG or antimouse IgG (CST), 1:2000 diluted into TBST) at room temperature for 2 h. Membranes were photographed in Amersham Imager 800 system using StarSignal plus regent (GenStar) or Omni-ECL reagent (EpiZyme). Compounds MG132, MLN4924, Bafilomycin A1 and pomalidomide were purchased from MedChemExpress (MCE) LLC.

The target in another series is CDK12 (Homo sapiens, UniProt Q9NYV4). Kind of series: CDK12 degradation in MDA-MB-231 cells by immunoblotting. Format: cell-based. Further details: Immunoblotting of CDK12 and CDK13 in MDA-MB-231 cells treated with increasing concentrations of ZLC491 for 15 h; endogenous in cells; host or cells: MDA-MB-231. Particulars: 0.3 μM; for Protein Degradation (%DMSO control, 0.3 μM) CDK12: MDA-MB-231 cells, 15 h, immunoblotting, normalized against α-tubulin; for Degradation rates of CDK12 at 0.3 μM: supplementary CSV. As to the method: as §1, §2, §3, §4
A general note: A western blot detects proteins with antibodies after separation by electrophoresis.

A short description of a further series: Pharmacokinetics in rats. The series is classed as in vivo, rat. As to the method: We further evaluated the in vivo PK properties of compound ZLC491 and the counterpart 4m (without F substitution) in rats, and the results were summarized in Table 2. […] The PK profiles of F-containing compound ZLC491 were further improved.
The pharmacokinetic investigation was taken by Shanghai Medicilon Inc. (Project Code: 26048-23001-NG). Sprague–Dawley male rats (Specific pathogen Free (SPF), provided by Zhejiang Vital River Laboratory Animal Technology Co. Ltd.) were dosed with ZLC491 solution formulation (5% DMSO, 10% Solutol, 85% normal saline, 2.5 mg/kg for intravenous dose, 10 mg/kg for oral dose) or compound 4m solution formulation (5% DMSO, 10% Solutol, 85% (20%HP-β-CD), 2.5 mg/kg for intravenous dose, 10 mg/kg for oral dose). Blood samples were collected at 0.083, 0.25, 0.5, 1, 2, 4, 8, and 24 h in intravenous administration, 0.25, 0.5, 1, 2, 4, 6, 8, and 24 h in oral administration. The blood samples were collected from sets of three rats at each time point in labeled microcentrifuge tubes containing heparin sodium as an anticoagulant. Plasma samples were separated by centrifugation (2–8 °C, 6800g for 6 min) within 1 h and stored below −80 °C until bioanalysis. All samples were processed for analysis by precipitation using acetonitrile and analyzed with a partially validated LC/MS/MS method. Pharmacokinetic parameters were calculated using the noncompartmental analysis tool of WinNonlin Enterprise software.

The test system of the next series is CDK12/13. The series can be described thus: Mechanism study: pretreatment before ZLC491, immunoblotting of CDK12/13 in MDA-MB-231 cells. Format: cell-based, human. To be noted: 2 h pretreatment (1 μM MG132, 0.1 μM MLN4924, 0.1 μM bafilomycin, 5 μM pomalidomide, 8 μM compound 5), then 1 μM ZLC491 10 h. As for the experimental part: We further investigated the mechanism of action of ZLC491-mediated CDK12/13 degradation. […] Additionally, pretreatment with CRBN ligand pomalidomide or the warhead compound 5 also reversed the ZLC491-mediated CDK12/13 degradation in MDA-MB-231 cells (Figure 4D,E).
Figure 4 ZLC491 induced CDK12/13 degradation in a CRBN- and proteasome-dependent fashion. Immunoblotting of CDK12 and CDK13 in MDA-MB-231 cells treated with 1 μM ZLC491 for 10 h with or without pretreatment with 1 μM MG132 (A), 0.1 μM MLN4924 (B), 0.1 μM bafilomycin (C), 5 μM pomalidomide (D) and 8 μM compound 5 (E) for 2 h; (F) immunoblotting of CDK12 and CDK13 in MDA-MB-231 cells treated with 1 μM ZLC491N for 10 h. α-Tubulin was used as a loading control.
as §4

[1] abbreviates: male, Sprague-Dawley, rat, plasma, oral bioavailability, p.o. 10 mg/kg vs i.v. 2.5 mg/kg.

Where a SMILES comes first, the peptide text is derived from it. The star is where a group is joined. Cbz = O=C(OCc1ccccc1)*

CDK12, sequence (Q9NYV4 whole entry): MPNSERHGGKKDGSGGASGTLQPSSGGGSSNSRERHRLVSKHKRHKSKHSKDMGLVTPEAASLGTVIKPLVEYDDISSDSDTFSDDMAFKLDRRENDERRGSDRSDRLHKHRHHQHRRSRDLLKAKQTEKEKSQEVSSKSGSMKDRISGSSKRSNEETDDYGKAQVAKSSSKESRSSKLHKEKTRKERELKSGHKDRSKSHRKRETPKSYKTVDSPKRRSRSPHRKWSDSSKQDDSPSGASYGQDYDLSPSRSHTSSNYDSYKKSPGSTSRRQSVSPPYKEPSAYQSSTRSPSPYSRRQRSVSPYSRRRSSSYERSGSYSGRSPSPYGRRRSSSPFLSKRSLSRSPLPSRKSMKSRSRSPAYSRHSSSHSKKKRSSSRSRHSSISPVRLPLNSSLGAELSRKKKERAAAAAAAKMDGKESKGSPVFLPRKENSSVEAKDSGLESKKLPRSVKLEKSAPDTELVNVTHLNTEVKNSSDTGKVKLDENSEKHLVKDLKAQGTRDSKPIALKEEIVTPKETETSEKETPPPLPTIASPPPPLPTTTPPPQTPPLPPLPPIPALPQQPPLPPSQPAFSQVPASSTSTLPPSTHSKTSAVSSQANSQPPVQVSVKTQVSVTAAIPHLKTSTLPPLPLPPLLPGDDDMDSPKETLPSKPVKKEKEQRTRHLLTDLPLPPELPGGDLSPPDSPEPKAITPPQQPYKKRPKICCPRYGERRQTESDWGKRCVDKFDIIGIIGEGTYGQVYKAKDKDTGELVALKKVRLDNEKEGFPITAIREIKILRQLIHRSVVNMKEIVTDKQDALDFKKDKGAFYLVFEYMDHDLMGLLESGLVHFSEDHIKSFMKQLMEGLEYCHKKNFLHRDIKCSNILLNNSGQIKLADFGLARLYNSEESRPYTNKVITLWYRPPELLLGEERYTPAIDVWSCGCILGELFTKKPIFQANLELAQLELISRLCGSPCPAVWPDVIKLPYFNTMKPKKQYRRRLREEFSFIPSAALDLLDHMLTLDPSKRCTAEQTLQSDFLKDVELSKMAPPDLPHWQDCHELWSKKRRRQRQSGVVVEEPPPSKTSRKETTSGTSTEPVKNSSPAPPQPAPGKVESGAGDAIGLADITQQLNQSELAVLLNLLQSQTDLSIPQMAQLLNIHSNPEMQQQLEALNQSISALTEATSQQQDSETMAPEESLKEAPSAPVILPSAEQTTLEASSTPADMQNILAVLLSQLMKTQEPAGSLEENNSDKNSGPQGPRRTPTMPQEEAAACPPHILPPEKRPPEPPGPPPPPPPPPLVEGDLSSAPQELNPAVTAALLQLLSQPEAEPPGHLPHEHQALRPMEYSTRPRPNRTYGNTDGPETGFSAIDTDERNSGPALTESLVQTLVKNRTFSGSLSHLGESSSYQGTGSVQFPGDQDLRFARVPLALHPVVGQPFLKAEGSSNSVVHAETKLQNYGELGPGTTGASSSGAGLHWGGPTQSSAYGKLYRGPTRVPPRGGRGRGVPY
CDK12, sequence (O75909 whole entry partner): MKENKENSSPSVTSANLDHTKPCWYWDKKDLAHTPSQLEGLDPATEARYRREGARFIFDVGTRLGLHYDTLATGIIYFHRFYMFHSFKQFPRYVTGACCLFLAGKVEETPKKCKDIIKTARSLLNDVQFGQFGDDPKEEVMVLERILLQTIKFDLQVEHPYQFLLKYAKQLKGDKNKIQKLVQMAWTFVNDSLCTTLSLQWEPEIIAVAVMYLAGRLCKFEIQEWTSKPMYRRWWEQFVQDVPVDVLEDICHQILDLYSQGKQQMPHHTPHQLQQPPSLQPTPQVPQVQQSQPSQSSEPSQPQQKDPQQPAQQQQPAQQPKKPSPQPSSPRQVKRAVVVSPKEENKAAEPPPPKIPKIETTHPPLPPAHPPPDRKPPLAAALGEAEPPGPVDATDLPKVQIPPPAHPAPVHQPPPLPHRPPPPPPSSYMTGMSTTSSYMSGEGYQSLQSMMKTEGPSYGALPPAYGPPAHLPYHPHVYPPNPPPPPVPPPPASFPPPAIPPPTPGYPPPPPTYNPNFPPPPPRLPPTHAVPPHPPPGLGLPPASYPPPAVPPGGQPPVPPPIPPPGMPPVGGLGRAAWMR
T1 sequence (Q14004 whole entry): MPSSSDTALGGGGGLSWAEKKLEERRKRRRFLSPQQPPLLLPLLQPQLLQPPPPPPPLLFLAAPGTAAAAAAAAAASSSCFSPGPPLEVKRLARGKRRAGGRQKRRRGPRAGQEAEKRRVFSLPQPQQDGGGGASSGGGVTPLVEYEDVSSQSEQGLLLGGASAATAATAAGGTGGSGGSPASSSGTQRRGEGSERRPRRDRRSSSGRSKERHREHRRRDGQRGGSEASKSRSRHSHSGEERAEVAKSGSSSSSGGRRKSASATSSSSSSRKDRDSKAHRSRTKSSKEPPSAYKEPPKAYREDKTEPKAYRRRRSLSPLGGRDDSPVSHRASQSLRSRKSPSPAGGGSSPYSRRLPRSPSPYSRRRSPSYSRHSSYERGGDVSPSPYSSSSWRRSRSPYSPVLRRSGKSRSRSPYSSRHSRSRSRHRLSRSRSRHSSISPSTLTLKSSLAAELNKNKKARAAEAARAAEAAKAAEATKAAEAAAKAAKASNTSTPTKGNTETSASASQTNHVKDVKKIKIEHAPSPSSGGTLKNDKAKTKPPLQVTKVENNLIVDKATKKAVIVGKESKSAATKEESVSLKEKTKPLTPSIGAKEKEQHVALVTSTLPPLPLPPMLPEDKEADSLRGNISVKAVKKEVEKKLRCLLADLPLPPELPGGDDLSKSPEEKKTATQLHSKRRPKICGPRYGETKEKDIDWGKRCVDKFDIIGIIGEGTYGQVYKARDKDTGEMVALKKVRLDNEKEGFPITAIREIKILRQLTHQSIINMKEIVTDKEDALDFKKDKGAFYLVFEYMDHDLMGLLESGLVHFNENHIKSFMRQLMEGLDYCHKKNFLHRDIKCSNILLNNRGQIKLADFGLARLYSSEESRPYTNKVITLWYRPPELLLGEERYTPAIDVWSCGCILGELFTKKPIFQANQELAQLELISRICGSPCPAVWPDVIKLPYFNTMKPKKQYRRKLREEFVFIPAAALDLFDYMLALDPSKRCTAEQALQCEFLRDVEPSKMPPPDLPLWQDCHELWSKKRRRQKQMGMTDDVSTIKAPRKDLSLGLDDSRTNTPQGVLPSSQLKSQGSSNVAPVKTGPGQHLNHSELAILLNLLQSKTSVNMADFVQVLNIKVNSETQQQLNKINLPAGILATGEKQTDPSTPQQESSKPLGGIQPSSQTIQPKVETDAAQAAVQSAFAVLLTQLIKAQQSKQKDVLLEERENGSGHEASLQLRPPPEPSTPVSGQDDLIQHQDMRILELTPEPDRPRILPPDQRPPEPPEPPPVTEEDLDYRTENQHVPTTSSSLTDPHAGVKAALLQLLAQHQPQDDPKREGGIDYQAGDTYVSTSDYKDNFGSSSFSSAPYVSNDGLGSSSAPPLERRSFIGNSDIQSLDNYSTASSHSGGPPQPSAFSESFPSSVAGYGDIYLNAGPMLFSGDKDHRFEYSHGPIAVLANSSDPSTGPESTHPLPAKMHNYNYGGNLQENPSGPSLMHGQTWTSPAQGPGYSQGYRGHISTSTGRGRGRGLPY
T1 sequence (O75909 whole entry partner): as the sequence (O75909 whole entry partner) above

As for `N#Cc1ccc(N[C@H]2CC[C@H](N(C(=O)NCc3ccccc3)c3ccc(N4CCN(C5CN(c6ccc7c(c6)C(=O)N(C6CCC(=O)NC6=O)C7=O)C5)CC4)cc3)CC2)nc1` (stereo partly shown) [4k, 3-Benzyl-1-((1r,4r)-4-((5-cyanopyridin-2-yl)amino)cyclohexyl)-1-(4-(4-(1-(2-(2,6-dioxopiperidin-3-yl)-1,3-dioxoisoindolin-5-yl)azetidin-3-yl)piperazin-1-yl)phenyl)urea], at CDK13, the “Protein Degradation (%DMSO control, 0.3 μM) CDK13” value was 76% and the Degradation rates of CDK13 at 0.3 μM came to 76%. Moreover, on CDK12, the “Protein Degradation (%DMSO control, 0.3 μM) CDK12” value came out at 62% and the Degradation rates of CDK12 at 0.3 μM worked out at 62%.

On to `N#Cc1ccc(N[C@H]2CC[C@H](N(C(=O)NCc3ccccc3)c3ccc(N4CCN(C5CCN(c6ccc7c(c6)C(=O)N(C6CCC(=O)NC6=O)C7=O)C5)CC4)cc3)CC2)nc1` (stereo partly shown) [4l, 3-Benzyl-1-((1r,4r)-4-((5-cyanopyridin-2-yl)amino)cyclohexyl)-1-(4-(4-(1-(2-(2,6-dioxopiperidin-3-yl)-1,3-dioxoisoindolin-5-yl)pyrrolidin-3-yl)piperazin-1-yl)phenyl)urea], for which, at CDK13, the “Protein Degradation (%DMSO control, 0.3 μM) CDK13” value is 40% and the Degradation rates of CDK13 at 0.3 μM was 40%. Also, at CDK12, the “Protein Degradation (%DMSO control, 0.3 μM) CDK12” value was determined as 17% and the Degradation rates of CDK12 at 0.3 μM came out at 17%.

As to `N#Cc1ccc(N[C@H]2CC[C@H](N(C(=O)NCc3ccccc3)c3ccc(N4CCN(C5CCN(c6ccc7c(c6)C(=O)N(C6CCC(=O)NC6=O)C7=O)CC5)CC4)cc3)CC2)nc1` (stereo partly shown) [4m, 3-Benzyl-1-((1r,4r)-4-((5-cyanopyridin-2-yl)amino)cyclohexyl)-1-(4-(4-(1-(2-(2,6-dioxopiperidin-3-yl)-1,3-dioxoisoindolin-5-yl)piperidin-4-yl)piperazin-1-yl)phenyl)urea], at CDK13, the “Protein Degradation (%DMSO control, 0.3 μM) CDK13” value came to 85% and the Degradation rates of CDK13 at 0.3 μM turned out to be 85%. Also, the “CL” value in the series “Pharmacokinetics in rats” (i.v. 2.5 mg/kg) is listed as 9.85 mL/min/kg. For the same compound, in “Pharmacokinetics in rats” (setting [1]), the bioavailability stood at 16% and the bioavailability at 24 h was 16.5%. On CDK12, the “Protein Degradation (%DMSO control, 0.3 μM) CDK12” value was found to be 70% and the Degradation rates of CDK12 at 0.3 μM came out at 70%.

For `N#Cc1ccc(N[C@H]2CC[C@H](N(C(=O)NCc3ccccc3)c3ccc(N4CCC5(CC4)CN(c4ccc6c(c4)C(=O)N(C4CCC(=O)NC4=O)C6=O)C5)cc3)CC2)nc1` (stereo partly shown) [4n, 3-Benzyl-1-((1r,4r)-4-((5-cyanopyridin-2-yl)amino)cyclohexyl)-1-(4-(2-(2-(2,6-dioxopiperidin-3-yl)-1,3-dioxoisoindolin-5-yl)-2,7-diazaspiro[3.5]nonan-7-yl)phenyl)urea], on CDK13, the “Protein Degradation (%DMSO control, 0.3 μM) CDK13” value was 85% and the Degradation rates of CDK13 at 0.3 μM was 85%. Moreover, on CDK12, the “Protein Degradation (%DMSO control, 0.3 μM) CDK12” value is 63% and the Degradation rates of CDK12 at 0.3 μM was found to be 63%.

Consider `N#Cc1ccc(N[C@H]2CC[C@H](N(C(=O)NCc3ccccc3)c3ccc(N4CCC5(CC4)CCN(c4ccc6c(c4)C(=O)N(C4CCC(=O)NC4=O)C6=O)C5)cc3)CC2)nc1` (stereo partly shown) [4o, 3-Benzyl-1-((1r,4r)-4-((5-cyanopyridin-2-yl)amino)cyclohexyl)-1-(4-(2-(2-(2,6-dioxopiperidin-3-yl)-1,3-dioxoisoindolin-5-yl)-2,8-diazaspiro[4.5]decan-8-yl)phenyl)urea], for which, on CDK13, the “Protein Degradation (%DMSO control, 0.3 μM) CDK13” value is 47% and the Degradation rates of CDK13 at 0.3 μM came out at 47%. Besides, on CDK12, the “Protein Degradation (%DMSO control, 0.3 μM) CDK12” value is 27% and the Degradation rates of CDK12 at 0.3 μM turned out to be 27%.

Regarding `N#Cc1ccc(N[C@H]2CC[C@H](N(C(=O)NCc3ccccc3)c3ccc(N4CCC5(CC4)CCN(c4ccc6c(c4)C(=O)N(C4CCC(=O)NC4=O)C6=O)CC5)cc3)CC2)nc1` (stereo partly shown) [4p, 3-Benzyl-1-((1r,4r)-4-((5-cyanopyridin-2-yl)amino)cyclohexyl)-1-(4-(9-(2-(2,6-dioxopiperidin-3-yl)-1,3-dioxoisoindolin-5-yl)-3,9-diazaspiro[5.5]undecan-3-yl)phenyl)urea], at CDK13, the “Protein Degradation (%DMSO control, 0.3 μM) CDK13” value is listed as 66% and the Degradation rates of CDK13 at 0.3 μM turned out to be 66%. For the same compound, at CDK12, the “Protein Degradation (%DMSO control, 0.3 μM) CDK12” value is on record as 42% and the Degradation rates of CDK12 at 0.3 μM was 42%.

Turning to `CC(C)C[C@@H](C=O)NC(=O)[C@H](CC(C)C)NC(=O)[C@H](CC(C)C)NC(=O)OCc1ccccc1` [MG132] (Cbz-Leu-Leu-Leu-aldehyde), in the series with CDK12/13, the “effect of pretreatment on ZLC491-induced CDK12/13 degradation” value (shortened to “effect of pretreatment”) is “significantly blocked”.

In the case of `NS(=O)(=O)OC[C@@H]1C[C@@H](n2ccc3c(N[C@H]4CCc5ccccc54)ncnc32)C[C@@H]1O` [MLN4924], the “effect of pretreatment” value in the series with CDK12/13 was “significantly blocked”.

Turning to `N#Cc1ccc(N[C@H]2CC[C@H](N(C(=O)NCc3ccccc3)c3ccc(N4CCNCC4)cc3)CC2)nc1` [compound 5, 3-Benzyl-1-((1r,4r)-4-((5-cyanopyridin-2-yl)amino)cyclohexyl)-1-(4-(piperazin-1-yl)phenyl)urea], the “effect of pretreatment” value in the series with CDK12/13 was “reversed”.

For `Nc1cccc2c1C(=O)N(C1CCC(=O)NC1=O)C2=O` (stereo not shown) [pomalidomide], the “effect of pretreatment” value in the series with CDK12/13 was “reversed”.

What is called bioavailability is the share of a dose that reaches the circulation, judged against a reference dose that is usually intravenous.

Source of the values: article PMC11513923, “Discovery of ZLC491 as a Potent, Selective, and Orally Bioavailable CDK12/13 PROTAC Degrader” (Journal of Medicinal Chemistry, 2024).
